Experimental data from PubChem BioAssay (NCI).
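Compound exposure: 48 hours, 5 concentrations, 96-well plates. Abbreviation: GI50, concentration required for 50% inhibition of growth. TGI denotes the concentration required for complete inhibition of growth.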

What was measured:
Assay in all cases: DTP human tumour cell line panel, 48 h
SK-MEL-2 melanoma = test system: SK-MEL-2 melanoma
HT29 colon = test system: HT29 colon
OVCAR-3 ovarian = test system: OVCAR-3 ovarian
U251 CNS = test system: U251 CNS
SNB-19 CNS = test system: SNB-19 CNS
SF-539 CNS = test system: SF-539 CNS
OVCAR-8 ovarian = test system: OVCAR-8 ovarian
IGROV1 ovarian = test system: IGROV1 ovarian
OVCAR-5 ovarian = test system: OVCAR-5 ovarian
HOP-62 NSCLC = test system: HOP-62 NSCLC
NCI-H23 lung = test system: NCI-H23 lung
SW-620 colon = test system: SW-620 colon
786-0 renal = test system: 786-0 renal
HCC-2998 colon = test system: HCC-2998 colon
MOLT-4 leukemia = test system: MOLT-4 leukemia
DU-145 prostate = test system: DU-145 prostate
NCI-H522 lung = test system: NCI-H522 lung
SK-MEL-28 melanoma = test system: SK-MEL-28 melanoma
BT-549 breast = test system: BT-549 breast
NCI-H226 lung = test system: NCI-H226 lung
A498 renal = test system: A498 renal
A549 NSCLC = test system: A549 NSCLC
M14 melanoma = test system: M14 melanoma
SR leukemia = test system: SR leukemia
RXF 393 renal = test system: RXF 393 renal
MALME-3M melanoma = test system: MALME-3M melanoma
MCF7 breast = test system: MCF7 breast
TK-10 renal = test system: TK-10 renal

Compound `COc1ccc(-c2nc(-c3nc4cc(Cl)c(F)cc4[nH]3)c3ccccn23)cc1` has a GI50 (SK-MEL-2 melanoma) of 6.86 µM, a TGI (SK-MEL-2 melanoma) of 80 µM and a GI50 (HT29 colon) of 4.26 µM. The TGI (HT29 colon) was over 100 µM, the GI50 (OVCAR-3 ovarian) was 8.75 µM and the TGI (OVCAR-3 ovarian) was over 100 µM. The GI50 (U251 CNS) was 6.67 µM, the TGI (U251 CNS) was over 100 µM and the GI50 (SNB-19 CNS) was 8.34 µM. For the same compound, the TGI (SNB-19 CNS) was over 100 µM, the GI50 (SF-539 CNS) was 39.8 µM and the TGI (SF-539 CNS) was over 100 µM. For the same compound, the GI50 (OVCAR-8 ovarian) was 3.45 µM, the TGI (OVCAR-8 ovarian) was over 100 µM and the GI50 (IGROV1 ovarian) was 4.91 µM. For the same compound, the TGI (IGROV1 ovarian) was over 100 µM, the GI50 (OVCAR-5 ovarian) was over 100 µM and the TGI (OVCAR-5 ovarian) was over 100 µM. It also gave a GI50 (HOP-62 NSCLC) of 19.8 µM, a TGI (HOP-62 NSCLC) of over 100 µM and a GI50 (NCI-H23 lung) of 29.1 µM. It also gave a TGI (NCI-H23 lung) of over 100 µM, a GI50 (SW-620 colon) of 5.38 µM and a TGI (SW-620 colon) of over 100 µM. It also gave a GI50 (786-0 renal) of 8.94 µM, a TGI (786-0 renal) of over 100 µM and a GI50 (HCC-2998 colon) of 4.03 µM. For the same compound, the TGI (HCC-2998 colon) was over 100 µM, the GI50 (MOLT-4 leukemia) was 4.21 µM and the TGI (MOLT-4 leukemia) was over 100 µM. For the same compound, the GI50 (DU-145 prostate) was 6.58 µM, the TGI (DU-145 prostate) was over 100 µM and the GI50 (NCI-H522 lung) was 4.39 µM. The TGI (NCI-H522 lung) was over 100 µM, the GI50 (SK-MEL-28 melanoma) was over 100 µM and the TGI (SK-MEL-28 melanoma) was over 100 µM. The GI50 (BT-549 breast) was 4.91 µM, the TGI (BT-549 breast) was over 100 µM and the GI50 (NCI-H226 lung) was 14.5 µM. It also gave a TGI (NCI-H226 lung) of over 100 µM, a GI50 (A498 renal) of 2.31 µM and a TGI (A498 renal) of over 100 µM. It also gave a GI50 (A549 NSCLC) of 4.04 µM, a TGI (A549 NSCLC) of over 100 µM and a GI50 (M14 melanoma) of 5.15 µM. For the same compound, the TGI (M14 melanoma) was over 100 µM, the GI50 (SR leukemia) was 3.87 µM and the TGI (SR leukemia) was over 100 µM. It also gave a GI50 (RXF 393 renal) of 4.65 µM, a TGI (RXF 393 renal) of over 100 µM and a GI50 (MALME-3M melanoma) of 20 µM. The TGI (MALME-3M melanoma) was over 100 µM, the GI50 (MCF7 breast) was 4.57 µM and the TGI (MCF7 breast) was over 100 µM. For the same compound, the GI50 (TK-10 renal) was 5.25 µM and the TGI (TK-10 renal) was over 100 µM.
